Experimental data published in ChEMBL document CHEMBL4138083, “Design, synthesis and primary biological evaluation of the novel 2-pyridone derivatives as potent non-nucleoside HBV inhibitors” (Eur J Med Chem, 2017).

Columns and labels:
Hepatitis B virus [1] = test: Antiviral activity against Hepatitis B virus infected in human HepG2.2.15 cells assessed as inhibition of HBsAg secretion after 8 days by ELISA; type: functional, organism-based; conditions: HepG2.2.15, 192 h
Hepatitis B virus [2] = test: Antiviral activity against Hepatitis B virus infected in human HepG2.2.15 cells assessed as inhibition of HBeAg secretion after 8 days by ELISA; type: functional, organism-based; conditions: HepG2.2.15, 192 h
[3] = Cytotoxicity against human HepG2.2.15 cells assessed as reduction in cell viability after 8 days by CCK-8 assay; type: cell-based, HepG2 2.2.15
[4] = Selectivity index, ratio of CC50 for human HepG2.2.15 cells to IC50 for Hepatitis B virus infected in human HepG2.2.15 cells assessed as inhibition of HBeAg secretion; type: toxicity, cell-based; conditions: read-out: Ratio CC50/IC50
Hepatitis B virus [5] = test: Antiviral activity against Hepatitis B virus infected in human HepG2.2.15 cells assessed as inhibition of viral DNA replication at 20 uM after 8 days by real time fluorescent PCR method relative to control; type: functional; conditions: HepG2.2.15, 192 h
[6] = Selectivity index, ratio of CC50 for human HepG2.2.15 cells to IC50 for Hepatitis B virus infected in human HepG2.2.15 cells assessed as inhibition of HBsAg secretion; type: toxicity, cell-based; conditions: read-out: Ratio CC50/IC50
Hepatitis B virus [7] = test: Antiviral activity against Hepatitis B virus infected in human HepG2.2.15 cells assessed as inhibition of viral DNA replication at 0.16 uM after 8 days by real time fluorescent PCR method relative to control; type: functional; conditions: HepG2.2.15, 192 h
Hepatitis B virus [8] = test: Antiviral activity against Hepatitis B virus infected in human HepG2.2.15 cells assessed as inhibition of viral DNA replication at 0.8 uM after 8 days by real time fluorescent PCR method relative to control; type: functional; conditions: HepG2.2.15, 192 h
Hepatitis B virus [9] = test: Antiviral activity against Hepatitis B virus infected in human HepG2.2.15 cells assessed as inhibition of viral DNA replication after 8 days by real time fluorescent PCR method; type: functional, organism-based; conditions: HepG2.2.15, 192 h
Hepatitis B virus [10] = test: Antiviral activity against Hepatitis B virus infected in human HepG2.2.15 cells assessed as inhibition of viral DNA replication at 4 uM after 8 days by real time fluorescent PCR method relative to control; type: functional; conditions: HepG2.2.15, 192 h
Hepatitis B virus [11] = test: Antiviral activity against Hepatitis B virus assessed as inhibition of HBsAg secretion; type: functional, organism-based

CCOc1ccc(-c2cc(NC(=O)c3ccccc3O)c[nH]c2=O)cc1
IC50 (Hepatitis B virus [1]): 15.2 µM | IC50 (Hepatitis B virus [2]): 24.6 µM | CC50 at 192 h [3]: 41 µM | selectivity ratio [4]: 1.66 | inhibition at 20 µM (Hepatitis B virus [5]): 37.8% | selectivity ratio [6]: 2.69

CCOc1ccc(-n2cc(C(=O)c3ccc(OC)cc3O)ccc2=O)cc1
IC50 (Hepatitis B virus [1]): > 100 µM | IC50 (Hepatitis B virus [2]): 51.5 µM | CC50 at 192 h [3]: > 100 µM | selectivity ratio [4]: > 1.94 | inhibition at 20 µM (Hepatitis B virus [5]): 53.3%

CCOc1ccc(-c2cc(NC(=O)c3ccc(Cl)cc3O)c[nH]c2=O)cc1
IC50 (Hepatitis B virus [1]): 23.2 µM | IC50 (Hepatitis B virus [2]): 22.8 µM | CC50 at 192 h [3]: 28.6 µM | selectivity ratio [4]: 1.25 | inhibition at 20 µM (Hepatitis B virus [5]): 21.9% | selectivity ratio [6]: 1.23

COc1ccc(-c2cc(NC(=O)c3cccc(OC)c3O)c[nH]c2=O)cc1
IC50 (Hepatitis B virus [1]): 34.5 µM | IC50 (Hepatitis B virus [2]): 32.8 µM | CC50 at 192 h [3]: 49.2 µM | selectivity ratio [4]: 1.5 | inhibition at 20 µM (Hepatitis B virus [5]): 25.3% | selectivity ratio [6]: 1.43

CCOc1ccc(-c2cc(NC(=O)c3cccc(OC)c3O)c[nH]c2=O)cc1
IC50 (Hepatitis B virus [1]): 30.5 µM | IC50 (Hepatitis B virus [2]): 41.3 µM | CC50 at 192 h [3]: 34.5 µM | selectivity ratio [4]: 0.83 | inhibition at 20 µM (Hepatitis B virus [5]): 24.9% | selectivity ratio [6]: 1.13

CCOc1ccc(-c2cc(NC(=O)c3ccc(OC)cc3O)c[nH]c2=O)cc1
IC50 (Hepatitis B virus [1]): 44.1 µM | IC50 (Hepatitis B virus [2]): 41.4 µM | CC50 at 192 h [3]: 69.6 µM | selectivity ratio [4]: 1.68 | inhibition at 20 µM (Hepatitis B virus [5]): 4.2% | selectivity ratio [6]: 1.58

COc1ccc(-c2cc(NC(=O)c3ccc(C)cc3O)c[nH]c2=O)cc1
IC50 (Hepatitis B virus [1]): 89.9 µM | IC50 (Hepatitis B virus [2]): 23.6 µM | CC50 at 192 h [3]: 46.1 µM | selectivity ratio [4]: 1.96 | inhibition at 20 µM (Hepatitis B virus [5]): 58.1% | selectivity ratio [6]: 0.51

Cc1cc(C)cc(-c2cc(NC(=O)c3ccccc3O)c[nH]c2=O)c1
IC50 (Hepatitis B virus [1]): 25.3 µM | IC50 (Hepatitis B virus [2]): 25.3 µM | CC50 at 192 h [3]: 25.1 µM | selectivity ratio [4]: 0.99 | inhibition at 20 µM (Hepatitis B virus [5]): 21.5% | selectivity ratio [6]: 0.99

COc1ccc(-c2cc(NC(=O)c3ccc(OC)cc3O)c[nH]c2=O)cc1
IC50 (Hepatitis B virus [1]): 26 µM | IC50 (Hepatitis B virus [2]): 17.5 µM | CC50 at 192 h [3]: 49.9 µM | selectivity ratio [4]: 2.86 | inhibition at 20 µM (Hepatitis B virus [5]): 59.3% | selectivity ratio [6]: 1.92

CCOc1ccc(-c2cc(NC(=O)c3ccc(C(F)(F)F)cc3O)c[nH]c2=O)cc1
IC50 (Hepatitis B virus [1]): 23.7 µM | IC50 (Hepatitis B virus [2]): 24.1 µM | inhibition at 0.16 µM (Hepatitis B virus [7]): 4.7% | inhibition at 0.8 µM (Hepatitis B virus [8]): 39.5% | CC50 at 192 h [3]: 22.2 µM | IC50 (Hepatitis B virus [9]): 3.4 µM | selectivity ratio [4]: 0.92 | inhibition at 4 µM (Hepatitis B virus [10]): 47.3% | inhibition at 20 µM (Hepatitis B virus [5]): 76.8% | selectivity ratio [6]: 0.94

Cc1cccc(-c2cc(NC(=O)c3ccc(C(F)(F)F)cc3O)c[nH]c2=O)c1
IC50 (Hepatitis B virus [1]): 26.4 µM | IC50 (Hepatitis B virus [2]): 26.8 µM | CC50 at 192 h [3]: 24.2 µM | selectivity ratio [4]: 0.9 | inhibition at 20 µM (Hepatitis B virus [5]): 23.2% | selectivity ratio [6]: 0.92

Nc1ccn([C@@H]2CS[C@H](CO)O2)c(=O)n1 [LAMIVUDINE]
IC50 (Hepatitis B virus [1]): > 100 µM | IC50 (Hepatitis B virus [2]): > 100 µM | inhibition at 0.16 µM (Hepatitis B virus [7]): 37% | inhibition at 0.8 µM (Hepatitis B virus [8]): 56.2% | CC50 at 192 h [3]: > 100 µM | IC50 (Hepatitis B virus [9]): 0.5 µM | inhibition at 4 µM (Hepatitis B virus [10]): 80.8% | inhibition at 20 µM (Hepatitis B virus [5]): 81.9%

COc1ccc(-c2cc(NC(=O)c3ccc(Cl)cc3O)c[nH]c2=O)cc1
IC50 (Hepatitis B virus [1]): 79.4 µM | IC50 (Hepatitis B virus [2]): 76.9 µM | CC50 at 192 h [3]: 50.5 µM | selectivity ratio [4]: 0.66 | inhibition at 20 µM (Hepatitis B virus [5]): 22.9% | selectivity ratio [6]: 0.64

Cc1cccc(-c2cc(NC(=O)c3ccc(Cl)cc3O)c[nH]c2=O)c1
IC50 (Hepatitis B virus [1]): 39 µM | IC50 (Hepatitis B virus [2]): 22.4 µM | CC50 at 192 h [3]: 33.1 µM | selectivity ratio [4]: 1.48 | inhibition at 20 µM (Hepatitis B virus [5]): 26.5% | selectivity ratio [6]: 0.85

COc1c(O)cc2occ(-c3ccc(O)cc3)c(=O)c2c1O [TECTORIGENIN]
IC50 (Hepatitis B virus [11]): 53.9 µM

CCOc1ccc(-c2cc(NC(=O)c3ccc(F)cc3O)c[nH]c2=O)cc1
IC50 (Hepatitis B virus [1]): 28.4 µM | IC50 (Hepatitis B virus [2]): 60.6 µM | CC50 at 192 h [3]: 51.5 µM | selectivity ratio [4]: 0.85 | selectivity ratio [6]: 1.81

CCOc1ccc(-c2cc(NC(=O)c3cc(OC)ccc3O)c[nH]c2=O)cc1
IC50 (Hepatitis B virus [1]): 49.1 µM | IC50 (Hepatitis B virus [2]): 51.2 µM | CC50 at 192 h [3]: 57.7 µM | selectivity ratio [4]: 1.13 | inhibition at 20 µM (Hepatitis B virus [5]): 46% | selectivity ratio [6]: 1.17

COc1ccc(C(=O)Nc2c[nH]c(=O)c(-c3ccc(OC)c(F)c3)c2)c(O)c1
IC50 (Hepatitis B virus [1]): 52.2 µM | IC50 (Hepatitis B virus [2]): 31.6 µM | CC50 at 192 h [3]: 50.5 µM | selectivity ratio [4]: 1.6 | selectivity ratio [6]: 0.97

COc1ccc(O)c(C(=O)Nc2c[nH]c(=O)c(-c3cccc(C)c3)c2)c1
IC50 (Hepatitis B virus [1]): 20.8 µM | IC50 (Hepatitis B virus [2]): 16.9 µM | CC50 at 192 h [3]: 30.1 µM | selectivity ratio [4]: 1.78 | inhibition at 20 µM (Hepatitis B virus [5]): 40.3% | selectivity ratio [6]: 1.44

Cc1cccc(-c2cc(NC(=O)c3ccc(F)cc3O)c[nH]c2=O)c1
IC50 (Hepatitis B virus [1]): 65.8 µM | IC50 (Hepatitis B virus [2]): 32.3 µM | CC50 at 192 h [3]: 37.2 µM | selectivity ratio [4]: 1.15 | inhibition at 20 µM (Hepatitis B virus [5]): 37.6% | selectivity ratio [6]: 0.57

Cc1cccc(-c2cc(NC(=O)c3ccccc3O)c[nH]c2=O)c1
IC50 (Hepatitis B virus [1]): > 100 µM | IC50 (Hepatitis B virus [2]): 58.4 µM | CC50 at 192 h [3]: 98.8 µM | selectivity ratio [4]: 1.69 | inhibition at 20 µM (Hepatitis B virus [5]): 25.5% | selectivity ratio [6]: < 0.99

COc1cccc(C(=O)Nc2c[nH]c(=O)c(-c3cccc(C)c3)c2)c1O
IC50 (Hepatitis B virus [1]): 94.7 µM | IC50 (Hepatitis B virus [2]): > 100 µM | CC50 at 192 h [3]: > 100 µM | selectivity ratio [6]: > 1.06

COc1ccc(C(=O)Nc2c[nH]c(=O)c(-c3ccc(C)c(C)c3)c2)c(O)c1
IC50 (Hepatitis B virus [1]): 32.4 µM | IC50 (Hepatitis B virus [2]): 33.2 µM | CC50 at 192 h [3]: 31.3 µM | selectivity ratio [4]: 0.94 | inhibition at 20 µM (Hepatitis B virus [5]): < 0% | selectivity ratio [6]: 0.97

COc1ccc(C(=O)Nc2c[nH]c(=O)c(-c3cccc(C)c3)c2)c(O)c1
IC50 (Hepatitis B virus [1]): > 100 µM | IC50 (Hepatitis B virus [2]): 44.6 µM | CC50 at 192 h [3]: > 100 µM | selectivity ratio [4]: > 2.24 | inhibition at 20 µM (Hepatitis B virus [5]): 60.9%

COc1ccc(-c2cc(NC(=O)c3ccccc3O)c[nH]c2=O)cc1
IC50 (Hepatitis B virus [1]): > 100 µM | IC50 (Hepatitis B virus [2]): 46.4 µM | CC50 at 192 h [3]: > 100 µM | selectivity ratio [4]: > 2.16 | inhibition at 20 µM (Hepatitis B virus [5]): 37.9%

COc1ccc(C(=O)Nc2c[nH]c(=O)c(-c3cc(C)ccc3C)c2)c(O)c1
IC50 (Hepatitis B virus [1]): 51.5 µM | IC50 (Hepatitis B virus [2]): 25.8 µM | CC50 at 192 h [3]: 50.4 µM | selectivity ratio [4]: 1.95 | inhibition at 20 µM (Hepatitis B virus [5]): < 0% | selectivity ratio [6]: 0.98

CCOc1ccc(-c2cc(NC(=O)c3ccc(C)cc3O)c[nH]c2=O)cc1
IC50 (Hepatitis B virus [1]): 62 µM | IC50 (Hepatitis B virus [2]): 91.9 µM | CC50 at 192 h [3]: > 100 µM | selectivity ratio [4]: > 1.09 | inhibition at 20 µM (Hepatitis B virus [5]): 36.4% | selectivity ratio [6]: > 1.61

COc1ccc(C(=O)Nc2c[nH]c(=O)c(-c3ccc4c(c3)OCO4)c2)c(O)c1
IC50 (Hepatitis B virus [1]): 26.4 µM | IC50 (Hepatitis B virus [2]): 24.2 µM | CC50 at 192 h [3]: 25.2 µM | selectivity ratio [4]: 1.04 | inhibition at 20 µM (Hepatitis B virus [5]): 51.9% | selectivity ratio [6]: 0.95

Cc1cccc(-c2cc(NC(=O)c3ccc(C)cc3O)c[nH]c2=O)c1
IC50 (Hepatitis B virus [1]): > 100 µM | IC50 (Hepatitis B virus [2]): 39.2 µM | CC50 at 192 h [3]: 75 µM | selectivity ratio [4]: 1.91 | selectivity ratio [6]: < 0.75
